Reference: patent US20230265151A1, “GIP/GLP1 CO-AGONIST COMPOUNDS” (priority 2020, published 2023)
Read-outs that look alike come from different tables or passages of the source.

Columns and labels:
Assay type in all cases: cell-based
hGIPR = target: T1, hGIPR (Homo sapiens, UniProt P48546); assay: Functional cAMP formation (HTRF) in HEK-293 clonal cells expressing hGIPR, 0.1% bovine casein, without or with 1.0% human serum albumin; details: for Emax: percent of maximal response to GIP(1-42)NH2; for EC50: cAMP
T1 construct: expressed in transfected cells
T1 sequence (P48546 22-466): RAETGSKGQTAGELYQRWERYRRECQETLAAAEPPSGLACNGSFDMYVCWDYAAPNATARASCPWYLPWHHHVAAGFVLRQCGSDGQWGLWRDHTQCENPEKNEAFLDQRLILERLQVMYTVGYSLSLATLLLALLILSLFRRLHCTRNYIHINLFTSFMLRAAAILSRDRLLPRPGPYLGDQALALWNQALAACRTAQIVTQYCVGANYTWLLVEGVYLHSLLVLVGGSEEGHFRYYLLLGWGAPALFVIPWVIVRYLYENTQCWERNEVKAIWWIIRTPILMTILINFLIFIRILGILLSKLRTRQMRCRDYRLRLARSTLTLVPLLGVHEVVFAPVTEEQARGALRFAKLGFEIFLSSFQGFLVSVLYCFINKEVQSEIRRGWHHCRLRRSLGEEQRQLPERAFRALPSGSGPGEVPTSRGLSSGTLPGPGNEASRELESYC
Method in brief: (§1)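 Readings of the HTRF 665/620 nm ratio, which falls as cAMP rises, were converted to nM cAMP using a standard curve after 30 min peptide exposure at 37° C.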

hGCGR = target: T2, hGCGR (Homo sapiens, UniProt P47871); assay: Functional cAMP formation (HTRF) in HEK-293 clonal cells expressing hGCGR, 0.1% bovine casein, without or with 1.0% human serum albumin; details: cAMP, 37° C.
T2 construct: expressed in transfected cells
Method in brief: as §1

hGLP-1R = hGLP-1R (Homo sapiens, UniProt P43220); assay: Functional cAMP formation (HTRF) in HEK-293 clonal cells expressing hGLP-1R, 0.1% bovine casein, without or with 1.0% human serum albumin; set-up: expressed in transfected cells; details: for Emax: percent of maximal response to GLP-1(7-36)NH2; for EC50: cAMP, 37° C.
Method in brief: as §1

[1] = HEK293, read-out: hGIPR Emax, % ± SEM, cAMP, 37° C., 0.1% bovine casein and 1.0% human serum albumin
[2] = HEK293, read-out: hGIPR Emax, % ± SEM, cAMP, 37° C., 0.1% bovine casein, arithmetic mean
[3] = hGIPR EC50, nM (SEM, n), 37° C., 0.1% bovine casein (no human serum albumin), geometric mean
[4] = hGIPR EC50, nM (SEM, n), 37° C., 0.1% bovine casein and 1.0% human serum albumin, geometric mean (SEM, n)
[5] = hGCGR EC50, nM (SEM, n), 0.1% bovine casein (no human serum albumin), geometric mean
[6] = hGCGR EC50, nM (SEM, n), 0.1% bovine casein and 1.0% human serum albumin, geometric mean (SEM, n)
[7] = HEK293, read-out: hGLP-1R Emax, % ± SEM, cAMP, 37° C., 0.1% bovine casein and 1.0% human serum albumin
[8] = hGLP-1R EC50, nM (SEM, n), 0.1% bovine casein (no human serum albumin), geometric mean
[9] = hGLP-1R EC50, nM (SEM, n), 0.1% bovine casein and 1.0% human serum albumin, geometric mean (SEM, n)
[10] = HEK293, read-out: hGLP-1R Emax, % ± SEM, cAMP, 37° C., 0.1% bovine casein, arithmetic mean

Chain of hGLP-1R (P43220 24-463): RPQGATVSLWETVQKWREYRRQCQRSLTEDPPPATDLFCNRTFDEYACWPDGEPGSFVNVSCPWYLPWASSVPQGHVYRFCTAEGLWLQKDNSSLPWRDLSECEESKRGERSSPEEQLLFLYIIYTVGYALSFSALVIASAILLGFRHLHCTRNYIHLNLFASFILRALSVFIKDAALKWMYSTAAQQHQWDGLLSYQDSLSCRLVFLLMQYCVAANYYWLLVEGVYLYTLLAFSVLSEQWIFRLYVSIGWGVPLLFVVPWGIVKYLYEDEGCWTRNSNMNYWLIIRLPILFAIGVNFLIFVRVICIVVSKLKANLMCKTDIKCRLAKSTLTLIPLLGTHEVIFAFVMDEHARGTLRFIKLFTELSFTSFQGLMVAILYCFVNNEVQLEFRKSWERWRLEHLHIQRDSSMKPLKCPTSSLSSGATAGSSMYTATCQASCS
T2 sequence (P47871 26-477): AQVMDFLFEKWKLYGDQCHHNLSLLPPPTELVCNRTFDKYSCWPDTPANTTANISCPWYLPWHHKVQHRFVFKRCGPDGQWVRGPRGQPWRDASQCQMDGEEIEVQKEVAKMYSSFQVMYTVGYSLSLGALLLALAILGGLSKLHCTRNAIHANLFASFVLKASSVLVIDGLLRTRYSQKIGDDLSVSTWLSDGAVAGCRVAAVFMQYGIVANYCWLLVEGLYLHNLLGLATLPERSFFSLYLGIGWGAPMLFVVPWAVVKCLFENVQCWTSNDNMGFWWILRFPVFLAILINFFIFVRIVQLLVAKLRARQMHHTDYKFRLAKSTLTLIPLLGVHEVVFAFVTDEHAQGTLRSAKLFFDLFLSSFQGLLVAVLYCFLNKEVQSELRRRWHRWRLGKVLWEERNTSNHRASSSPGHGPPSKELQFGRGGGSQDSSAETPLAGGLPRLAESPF

SMILES: CC[C@H](C)[C@H](NC(=O)[C@H](CC(C)C)NC(=O)[C@](C)(Cc1ccc(O)cc1)NC(=O)[C@@H](CCC(=O)O)NC(=O)[C@@H](NC(=O)[C@H](Cc1ccccc1)NC(=O)[C@H](CCCCNC(=O)COCCOCCNC(=O)COCCOCCNC(=O)CCCCCCCCCOc1ccc(C(=O)O)cc1)NC(=O)C(C)(C)NC(=O)[C@H](CCC(N)=O)NC(=O)[C@H](C)NC(=O)[C@H](CCCCNC(=O)COCCOCCNC(=O)COCCOCCNC(=O)CCCCCCCCCOc1ccc(C(=O)O)cc1)NC(=O)[C@H](CCCN)NC(=O)[C@H](CC(=O)O)NC(=O)[C@H](CC(C)C)NC(=O)[C@](C)(CC(C)C)NC(=O)[C@@H](NC(=O)C(C)(C)NC(=O)[C@@H](NC(=O)[C@H](CC(=O)O)NC(=O)[C@H](CO)NC(=O)[C@@H](NC(=O)[C@](C)(Cc1ccccc1F)NC(=O)[C@@H](NC(=O)CNC(=O)[C@H](CCC(=O)O)NC(=O)C(C)(C)NC(=O)[C@@H](N)Cc1ccc(O)cc1)[C@@H](C)O)[C@@H](C)O)C(C)C)[C@@H](C)CC)[C@@H](C)CC)C(=O)N[C@@H](CCC(=O)O)C(=O)NCC(=O)NCC(=O)N1CCC[C@H]1C(=O)N[C@@H](CO)C(=O)N[C@@H](CO)C(=O)NCC(=O)N[C@@H](C)C(=O)N1CCC[C@H]1C(=O)N1CCC[C@H]1C(=O)N1CCC[C@H]1C(=O)N[C@@H](CO)C(N)=O [Example 394]
- Emax (hGIPR; [1]): 84.6%
- Emax (hGIPR; [2]): 97.7%
- EC50 (hGIPR; [3]): 0.0179 nM
- EC50 (hGIPR; [4]): 1.38 nM
- EC50 (hGCGR; [5]): > 9950 nM
- EC50 (hGCGR; [6]): > 9950 nM
- Emax (hGLP-1R; [7]): 96.8%
- EC50 (hGLP-1R; [8]): 0.223 nM
- EC50 (hGLP-1R; [9]): 5.83 nM

SMILES: CC[C@H](C)[C@H](NC(=O)[C@H](CC(C)C)NC(=O)[C@](C)(Cc1ccc(O)cc1)NC(=O)[C@@H](CCC(=O)O)NC(=O)[C@@H](NC(=O)[C@H](Cc1ccccc1)NC(=O)[C@H](CCC(=O)O)NC(=O)C(C)(C)NC(=O)[C@H](CCC(N)=O)NC(=O)[C@H](C)NC(=O)[C@H](CCCCNC(=O)COCCOCCNC(=O)COCCOCCNC(=O)CCCCCCCCCOc1ccc(C(=O)O)cc1)NC(=O)[C@H](CCCN)NC(=O)[C@H](CC(=O)O)NC(=O)[C@H](CC(C)C)NC(=O)[C@](C)(CC(C)C)NC(=O)[C@@H](NC(=O)C(C)(C)NC(=O)[C@H](Cc1ccncc1)NC(=O)[C@H](CC(=O)O)NC(=O)[C@H](CO)NC(=O)[C@@H](NC(=O)[C@](C)(Cc1ccccc1F)NC(=O)[C@@H](NC(=O)CNC(=O)[C@H](CCC(=O)O)NC(=O)C(C)(C)NC(=O)[C@@H](N)Cc1ccc(O)cc1)[C@@H](C)O)[C@@H](C)O)[C@@H](C)CC)[C@@H](C)CC)C(=O)N[C@@H](CCCCNC(=O)COCCOCCNC(=O)COCCOCCNC(=O)CCCCCCCCCOc1ccc(C(=O)O)cc1)C(=O)NCC(=O)NCC(=O)N1CCC[C@H]1C(=O)N[C@@H](CO)C(=O)N[C@@H](CO)C(=O)NCC(=O)N[C@@H](C)C(=O)N1CCC[C@H]1C(=O)N1CCC[C@H]1C(=O)N1CCC[C@H]1C(=O)N[C@@H](CO)C(N)=O [Example 395]
- Emax (hGIPR; [1]): 57.8%
- Emax (hGIPR; [2]): 93.1%
- EC50 (hGIPR; [3]): 0.0127 nM
- EC50 (hGCGR; [5]): > 9950 nM
- EC50 (hGCGR; [6]): > 9950 nM
- Emax (hGLP-1R; [7]): 96.1%
- Emax (hGLP-1R; [10]): 90.8%
- EC50 (hGLP-1R; [8]): 0.377 nM
- EC50 (hGLP-1R; [9]): 6.26 nM

SMILES: CC[C@H](C)[C@H](NC(=O)[C@H](CC(C)C)NC(=O)[C@](C)(Cc1ccc(O)cc1)NC(=O)[C@@H](CCC(=O)O)NC(=O)[C@@H](NC(=O)[C@H](Cc1ccccc1)NC(=O)[C@H](CCC(=O)O)NC(=O)C(C)(C)NC(=O)[C@H](CCC(N)=O)NC(=O)[C@H](C)NC(=O)[C@H](CCCCNC(=O)COCCOCCNC(=O)COCCOCCNC(=O)CCCCCCCCCOc1ccc(C(=O)O)cc1)NC(=O)[C@H](CCCN)NC(=O)[C@H](CC(=O)O)NC(=O)[C@H](CC(C)C)NC(=O)[C@](C)(CC(C)C)NC(=O)[C@@H](NC(=O)C(C)(C)NC(=O)[C@H](Cc1ccc(O)cc1)NC(=O)[C@H](CC(=O)O)NC(=O)[C@H](CO)NC(=O)[C@@H](NC(=O)[C@](C)(Cc1ccccc1F)NC(=O)[C@@H](NC(=O)CNC(=O)[C@H](CCC(=O)O)NC(=O)C(C)(C)NC(=O)[C@@H](N)Cc1ccc(O)cc1)[C@@H](C)O)[C@@H](C)O)[C@@H](C)CC)[C@@H](C)CC)C(=O)N[C@@H](CCCCNC(=O)COCCOCCNC(=O)COCCOCCNC(=O)CCCCCCCCCOc1ccc(C(=O)O)cc1)C(=O)NCC(=O)NCC(=O)N1CCC[C@H]1C(=O)N[C@@H](CO)C(=O)N[C@@H](CO)C(=O)NCC(=O)N[C@@H](C)C(=O)N1CCC[C@H]1C(=O)N1CCC[C@H]1C(=O)N1CCC[C@H]1C(=O)N[C@@H](CO)C(N)=O [Example 396]
- Emax (hGIPR; [1]): 67.1%
- Emax (hGIPR; [2]): 96.2%
- EC50 (hGIPR; [3]): 0.0113 nM
- EC50 (hGIPR; [4]): 0.595 nM
- EC50 (hGCGR; [5]): > 9950 nM
- EC50 (hGCGR; [6]): > 9950 nM
- Emax (hGLP-1R; [7]): 94.4%
- EC50 (hGLP-1R; [8]): 0.291 nM

SMILES: CC[C@H](C)[C@H](NC(=O)[C@H](CC(C)C)NC(=O)[C@](C)(Cc1ccc(O)cc1)NC(=O)[C@@H](CCC(=O)O)NC(=O)[C@@H](NC(=O)[C@H](Cc1ccccc1)NC(=O)[C@H](CCC(=O)O)NC(=O)C(C)(C)NC(=O)[C@H](CCC(N)=O)NC(=O)[C@H](C)NC(=O)[C@H](CCCCNC(=O)COCCOCCNC(=O)COCCOCCNC(=O)CCCCCCCCCOc1ccc(C(=O)O)cc1)NC(=O)[C@H](CCCN)NC(=O)[C@H](CC(=O)O)NC(=O)[C@H](CC(C)C)NC(=O)[C@](C)(CC(C)C)NC(=O)[C@@H](NC(=O)C(C)(C)NC(=O)[C@@H](NC(=O)[C@H](CC(=O)O)NC(=O)[C@H](CO)NC(=O)[C@@H](NC(=O)[C@](C)(Cc1ccccc1F)NC(=O)[C@@H](NC(=O)CNC(=O)[C@H](CCC(=O)O)NC(=O)C(C)(C)NC(=O)[C@@H](N)Cc1ccc(O)cc1)[C@@H](C)O)[C@@H](C)O)C(C)C)[C@@H](C)CC)[C@@H](C)CC)C(=O)N[C@@H](CCCCNC(=O)COCCOCCNC(=O)COCCOCCNC(=O)CCCCCCCCCOc1ccc(C(=O)O)cc1)C(=O)NCC(=O)NCC(=O)N1CCC[C@H]1C(=O)N[C@@H](CO)C(=O)N[C@@H](CO)C(=O)NCC(=O)N[C@@H](C)C(=O)N1CCC[C@H]1C(=O)N1CCC[C@H]1C(=O)N1CCC[C@H]1C(=O)N[C@@H](CO)C(N)=O [Example 397]
- Emax (hGIPR; [1]): 84.5%
- Emax (hGIPR; [2]): 94.6%
- EC50 (hGIPR; [3]): 0.0293 nM
- EC50 (hGCGR; [5]): > 9950 nM
- EC50 (hGCGR; [6]): > 9950 nM
- Emax (hGLP-1R; [10]): 95.8%
- EC50 (hGLP-1R; [8]): 0.166 nM

SMILES: CC[C@H](C)[C@H](NC(=O)[C@H](CC(C)C)NC(=O)[C@](C)(Cc1ccc(O)cc1)NC(=O)[C@@H](CCC(=O)O)NC(=O)[C@@H](NC(=O)[C@H](Cc1ccccc1)NC(=O)[C@H](CCCCNC(=O)COCCOCCNC(=O)CC[C@H](NC(=O)CCCCCCCCCCCCC(=O)O)C(=O)O)NC(=O)C(C)(C)NC(=O)[C@H](CCC(N)=O)NC(=O)[C@H](C)NC(=O)[C@H](CCCCNC(=O)COCCOCCNC(=O)CC[C@H](NC(=O)CCCCCCCCCCCCC(=O)O)C(=O)O)NC(=O)[C@H](CCCN)NC(=O)[C@H](CC(=O)O)NC(=O)[C@H](CC(C)C)NC(=O)[C@](C)(CC(C)C)NC(=O)[C@@H](NC(=O)C(C)(C)NC(=O)[C@@H](NC(=O)[C@H](CC(=O)O)NC(=O)[C@H](CO)NC(=O)[C@@H](NC(=O)[C@](C)(Cc1ccccc1F)NC(=O)[C@@H](NC(=O)CNC(=O)[C@H](CCC(=O)O)NC(=O)C(C)(C)NC(=O)[C@@H](N)Cc1ccc(O)cc1)[C@@H](C)O)[C@@H](C)O)C(C)C)[C@@H](C)CC)[C@@H](C)CC)C(=O)N[C@@H](CCC(=O)O)C(=O)NCC(=O)NCC(=O)N1CCC[C@H]1C(=O)N[C@@H](CO)C(=O)N[C@@H](CO)C(=O)NCC(=O)N[C@@H](C)C(=O)N1CCC[C@H]1C(=O)N1CCC[C@H]1C(=O)N1CCC[C@H]1C(=O)N[C@@H](CO)C(N)=O [Example 398]
- Emax (hGIPR; HEK293, cAMP, 37° C., 0.1% bovine casein and 1.0% human serum albumin, read-out: hGIPR Emax, % ± SEM): 91.9%
- Emax (hGIPR; HEK293, cAMP, 37° C., 0.1% bovine casein, arithmetic mean, read-out: hGIPR Emax, % ± SEM): 97.4%
- EC50 (hGIPR; 37° C., 0.1% bovine casein (no human serum albumin), geometric mean, read-out: hGIPR EC50, nM (SEM, n)): 0.0166 nM
- EC50 (hGCGR; 0.1% bovine casein (no human serum albumin), geometric mean, read-out: hGCGR EC50, nM (SEM, n)): > 9950 nM
- EC50 (hGCGR; 0.1% bovine casein and 1.0% human serum albumin, geometric mean (SEM, n), read-out: hGCGR EC50, nM (SEM, n)): > 9950 nM
- EC50 (hGLP-1R; 0.1% bovine casein (no human serum albumin), geometric mean, read-out: hGLP-1R EC50, nM (SEM, n)): 0.215 nM
- EC50 (hGLP-1R; 0.1% bovine casein and 1.0% human serum albumin, geometric mean (SEM, n), read-out: hGLP-1R EC50, nM (SEM, n)): 41.3 nM
